According to article PMC4489196, “Visualization of regional tau deposits using ^3H-THK5117 in Alzheimer brain tissue” (Acta Neuropathologica Communications, 2015):
Values joined by “and” are separate entries in the source; they are usually repeats but may differ in a detail not shown here. Equal entries are not always repeated. Where two headings read alike, the source gives them in different places. One block for each compound: values may come before it.

Columns and labels:
[1] = target: ^3H-THK5117 binding sites in AD temporal cortex homogenates (tau) (Homo sapiens, UniProt P10636); assay: Competition binding against ^3H-THK5117 (3 nM) in temporal cortex homogenates; conditions: for Ki: AD temporal cortices
Chain of ^3H-THK5117 binding sites in AD temporal cortex homogenates (tau) (P10636 623-708 limits assumed): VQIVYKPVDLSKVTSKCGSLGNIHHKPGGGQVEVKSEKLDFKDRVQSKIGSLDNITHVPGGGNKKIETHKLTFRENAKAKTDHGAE
Experimental: (§1) Human brain tissues from eight Alzheimer patients and eight controls were obtained from the Netherlands Brain Bank (demographic details in Table 1), and homogenized in PBS containing 0.1 % BSA and protease/phosphatase inhibitor.
(§2) The specificity and selectivity of ^3H-THK5117 binding was determined by incubating homogenates (0.1 mg tissue) from Alzheimer’s patients’ temporal cortex and hippocampus with ^3H-THK5117 (3 nM), in the presence of THK5117 (10^−5 -10^−13 M), FDDNP (10^−6 -10^−14 M) or BTA-1 (10^−5 -10^−13 M). The results were analyzed with GraphPad Prism software, and the resulting inhibitory constants (Ki) were determined.

[2] = tested on: ^3H-PIB binding sites (amyloid); assay: Competition between ^3H-PIB and unlabeled THK5117; parameters: species or system Human
neurofibrillary tangles = neurofibrillary tangles (Homo sapiens, UniProt P10636); assay: THK5117 autofluorescence staining with adjacent AT8 immunostaining; format: binding; conditions: paraffin hippocampus section of another AD case; confirmed with AT8 on adjacent section
Chain of neurofibrillary tangles (P10636 623-758 limits assumed): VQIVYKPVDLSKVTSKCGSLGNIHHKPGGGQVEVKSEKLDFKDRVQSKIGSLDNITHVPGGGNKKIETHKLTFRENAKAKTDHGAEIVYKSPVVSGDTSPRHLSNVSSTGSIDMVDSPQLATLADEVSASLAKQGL
Source text: A paraffin section from hippocampus of a patient with confirmed AD (at death, Braak VI, from the Netherlands brain bank) were quenched and stained with THK5117 following the procedure used by Okamura and colleagues for autofluorescence studies. An adjacent section was labeled with AT8 anti-tau and assessed using the EnVision + System HRP (DAB) (Dako Denmark) detection method.

[3] = tested on: ^3H-THK5117 binding sites in hippocampus homogenates of one AD case (tau); assay: Competition binding THK5117 against ^3H-THK5117 (3 nM) in hippocampus homogenates; parameters: species or system Human
Experimental: as §1, §2
A. Saturation binding curve and B. Scatchard plot of ^3H-THK5117 (0.04-270nM) for hippocampus homogenates of one AD patient. The plain regression line was determined by GraphPad Prism software and corresponds to the low affinity site. The dotted regression line was determined manually and corresponds to the high affinity site. Corresponding Kd and Bmax values are mentioned below the curve. C. Competition binding curve between THK5117 (10^-13-10^-5M) and ^3H-THK5117 (3nM) for hippocampus homogenates of one AD case. […] Ki Sup Hi = Ki for super high binding site; Ki Hi = Ki for high binding site; Ki Lo = Ki for low binding site.

[4] = target: post-mortem AD temporal brain tissue homogenates (tau) (Homo sapiens, UniProt P10636); assay: Saturation binding assay of ^3H-THK5117 in temporal cortex homogenates; conditions: AD temporal lobe homogenates
Chain of post-mortem AD temporal brain tissue homogenates (tau) (P10636 623-758 limits assumed): as above
Experimental: as §1
(§3) Saturation binding assays were carried out with incubation of temporal cortex and hippocampus homogenates (0.1 mg tissue) with ^3H-THK5117 (0.04-270 nM) for 2 h at room temperature. Non-specific binding was determined with 1 μM THK5117. The binding reaction was terminated by filtering through glass fiber filters (pre-soaked for 3 h in 0.3 % polyethylenimine), and rinsing three times with cold binding buffer, and counted with a beta scintillation counter (Beckman Coulter LS6500). The results were analyzed with GraphPad Prism software (version 5.0f for Mac OS X, GraphPad Software, San Diego California USA). The equilibrium dissociation constant (Kd) and maximum number of binding sites (Bmax) were then determined.

[5] = target: hippocampus homogenates of one AD patient (tau) (Homo sapiens, UniProt P10636); assay: Saturation binding assay of ^3H-THK5117 in hippocampus homogenates; conditions: one Alzheimer brain
Chain of hippocampus homogenates of one AD patient (tau) (P10636 623-695 limits assumed): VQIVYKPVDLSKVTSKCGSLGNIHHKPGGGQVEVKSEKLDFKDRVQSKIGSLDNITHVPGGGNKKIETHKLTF
Experimental: as §1, §3

[6] = tested on: brain homogenates from patients with AD (tau); assay: Regional binding studies with ^3H-THK5117 (3 nM) in brain homogenates; parameters: species or system Human; conditions: AD cases
Experimental: as §1
Regional binding studies with ^3H-THK5117 were carried out on the brain homogenates from temporal cortex, frontal lobe, parietal lobe, caudate nucleus, hippocampus and cerebellum that were incubated with a single concentration of ^3H-THK5117 (3 nM). Non-specific binding was determined with 1 μM of THK5117. Comparisons between AD and control tissues were made using Mann–Whitney non-parametrical tests, with a threshold for significance of p < 0.05.

[7] = tested on: frozen brain sections from left hemispheres of AD cases and control case (tau); assay: ^3H-THK5117 autoradiography on large frozen brain hemisphere sections; format: binding, Human
Source text: Postmortem brain tissue for autoradiography studies was obtained from three patients with AD that all three had been clinically followed (by A.N.) at the Department of Geriatric Medicine, Karolinska University Hospital, Huddinge, Sweden. The left hemisphere of each brain was frozen in large block sections. The right hemispheres were fixed in formaldehyde, brain tissue was sampled according to the BrainNet Europe protocol and histopathological investigations were undertaken (by I.N.) to confirm AD pathology (see Additional file 1).
Frozen brain sections ([…]) from the left hemispheres of the three AD cases and the healthy control case were cut with a cryostat at −20 °C and thaw-mounted on chrome alum gelatin-subbed slides following a previously described protocol.
For each case, frozen sections were dried, pre-incubated for 10 min with PBS + 0.1%BSA, and were then incubated for one hour with 4 nM ^3H-THK5117. The non-specific binding assay was performed on adjacent sections in the presence of 10 μM THK5117. After incubation, sections were washed 3 times for 5 min with cold incubation buffer, dipped into cold distilled water, and allowed to dry for at least 24 h. A Fujifilm BAS-2500 phosphor imaging plate was then exposed to the section, along with a tritium standard, for three days (Larodan Fine Chemical AB, Malmö, Sweden) before being scanned by a phosphoimager Fujifilm BAS-2500.
Binding of the tracer was quantitatively assessed using MultiGauge Fujifilm software (V3.0). Two independent raters manually segmented different regions of interest, as defined by Duvernoy in “The Human Hippocampus” [19], resulting in regional mean uptake values for each segment. Inter-rater agreement was assessed for all uptake values using a Bland-Altman plot, with limits of agreement set to 95 %. When agreement was satisfactory, regional uptake values from both raters were averaged for subsequent analyses.

[8] = tested on: tau (AT8) in paraffin sections of anterior and posterior hippocampus; assay: ^3H-THK5117 autoradiography versus AT8 immunostaining on paraffin hippocampus sections; format: binding, Human; conditions: adjacent paraffin sections, AD case one
Source text: Routine pathology with AT8 has been performed on anterior and posterior hippocampus paraffin sections from the right hemisphere of the three AD cases. Autoradiographies with ^3H-THK5117 on adjacent sections have been performed after deparafinization following the same protocol as cited above.

- Competition with ^3H-THK5117 ([1]; temporal cortex homogenates of four AD cases, ^3H-THK5117 3 nM): No competition
SMILES: CNc1ccc(-c2nc3ccccc3s2)cc1 [BTA-1, 2-(4-methylaminophenyl)benzothiazole, reference compound]

SMILES: CNc1ccc(-c2ccc3cc(OCC(O)CF)ccc3n2)cc1 (stereo not shown) [THK5117]
- Ki ([1]; ^3H-THK5117 3 nM, averaged from ten experiments, read-out: Ki2): 16 nM
- Ki ([1]; ^3H-THK5117 3 nM, averaged from ten experiments, read-out: Ki3): 750 nM
- Ki ([1]; potential third site, model constraint >100 for start of curve, ten experiments, read-out: Ki1): 0.001 nM
- Competition between ^3H-PIB and unlabeled THK5117 [2]: No competition
- Autofluorescence staining (neurofibrillary tangles): THK5117 binding on the neurofibrillary tangles
- Number of binding sites in competition binding curve [3]: two different binding sites

SMILES: CNc1ccc(-c2ccc3cc(OCC(O)CF)ccc3n2)cc1 (stereo not shown) [^3H-THK5117, 1-Fluoro-3-((2-(4-([^3H]methylamino)phenyl)quinolin-6-yl)oxy)propan-2-ol]
- Kd ([4]; high affinity site, determined manually from Scatchard plot, averaged from seven experiments, read-out: Kd1): 2.2 nM
- Kd ([4]; low affinity site (GraphPad Prism fit), read-out: Kd2): 24 nM and 23.6 nM
- Kd ([5]; high affinity site, read-out: Kd, first binding site): 3.1 nM
- Kd ([5]; low affinity site, read-out: Kd, second binding site): 34 nM

SMILES: [3H]CNc1ccc(-c2ccc3cc(OCC(O)CF)ccc3n2)cc1 (stereo not shown) [^3H-THK5117, 1-Fluoro-3-((2-(4-([^3H]methylamino)phenyl)quinolin-6-yl)oxy)propan-2-ol]
- Bmax1 ([4]; high affinity site, determined manually from Scatchard plot): 250 fmol/mg
- Bmax2 ([4]; low affinity site (GraphPad Prism fit)): 1416 fmol/mg
- Bmax, first binding site ([5]; high affinity site): 250 fmol/mg
- Bmax, second binding site ([5]; low affinity site): 1226 fmol/mg
- Regional binding of ^3H-THK5117 ([6]; caudate nucleus homogenates): 198 ± 30 fmol/mg
- Regional binding of ^3H-THK5117 ([6]; cerebellum homogenates): very low
- Regional binding of ^3H-THK5117 ([6]; hippocampus homogenates): 198 ± 67 fmol/mg
- Regional binding of ^3H-THK5117 ([6]; parietal lobe homogenates): 105 ± 46 fmol/mg
- Regional binding of ^3H-THK5117 ([6]; temporal lobe homogenates): 110 ± 47 fmol/mg
- ^3H-THK5117 specific binding ([7]; Amygdala, AD Case 1): 507 fmol/mg
- ^3H-THK5117 specific binding ([7]; Cingulate gyrus, AD Case 1): 292 fmol/mg
- ^3H-THK5117 specific binding ([7]; Cingulate gyrus, AD Case 2): 120 fmol/mg
- ^3H-THK5117 specific binding ([7]; Cingulate gyrus, AD Case 3): 110 fmol/mg
- ^3H-THK5117 specific binding ([7]; Entorhinal cortex, AD Case 1): 713 fmol/mg
- ^3H-THK5117 specific binding ([7]; Entorhinal cortex, AD Case 2): 126 fmol/mg
- ^3H-THK5117 specific binding ([7]; Entorhinal cortex, AD Case 3): 53 fmol/mg
- ^3H-THK5117 specific binding ([7]; Fusiform gyrus, AD Case 1): 585 fmol/mg
- ^3H-THK5117 specific binding ([7]; Fusiform gyrus, AD Case 2): 189 fmol/mg
- ^3H-THK5117 specific binding ([7]; Fusiform gyrus, AD Case 3): 52 fmol/mg
- ^3H-THK5117 specific binding ([7]; Hippocampus, AD Case 1): 693 fmol/mg
- ^3H-THK5117 specific binding ([7]; Hippocampus, AD Case 2): 171 fmol/mg
- ^3H-THK5117 specific binding ([7]; Hippocampus, AD Case 3): 112 fmol/mg
- ^3H-THK5117 specific binding ([7]; Inferior temporal gyrus, AD Case 1): 764 fmol/mg
- ^3H-THK5117 specific binding ([7]; Inferior temporal gyrus, AD Case 2): 125 fmol/mg
- ^3H-THK5117 specific binding ([7]; Inferior temporal gyrus, AD Case 3): 59 fmol/mg
- ^3H-THK5117 specific binding ([7]; Insular cortex, AD Case 1): 423 fmol/mg
- ^3H-THK5117 specific binding ([7]; Insular cortex, AD Case 2): 68 fmol/mg
- ^3H-THK5117 specific binding ([7]; Insular cortex, AD Case 3): 50 fmol/mg
- ^3H-THK5117 specific binding ([7]; Middle frontal gyrus, AD Case 1): 276 fmol/mg
- ^3H-THK5117 specific binding ([7]; Middle frontal gyrus, AD Case 2): 55 fmol/mg
- ^3H-THK5117 specific binding ([7]; Middle frontal gyrus, AD Case 3): 56 fmol/mg
- ^3H-THK5117 specific binding ([7]; Middle temporal gyrus, AD Case 1): 495 fmol/mg
- ^3H-THK5117 specific binding ([7]; Middle temporal gyrus, AD Case 2): 140 fmol/mg
- ^3H-THK5117 specific binding ([7]; Middle temporal gyrus, AD Case 3): 48 fmol/mg
- ^3H-THK5117 specific binding ([7]; Postcentral gyrus, AD Case 1): 312 fmol/mg
- ^3H-THK5117 specific binding ([7]; Postcentral gyrus, AD Case 2): 77 fmol/mg
- ^3H-THK5117 specific binding ([7]; Postcentral gyrus, AD Case 3): 75 fmol/mg
- ^3H-THK5117 specific binding ([7]; Precentral gyrus, AD Case 1): 310 fmol/mg
- ^3H-THK5117 specific binding ([7]; Precentral gyrus, AD Case 2): 32 fmol/mg
- ^3H-THK5117 specific binding ([7]; Precentral gyrus, AD Case 3): 102 fmol/mg
- ^3H-THK5117 specific binding ([7]; Putamen, AD Case 1): 242 fmol/mg
- ^3H-THK5117 specific binding ([7]; Superior frontal gyrus, AD Case 1): 344 fmol/mg
- ^3H-THK5117 specific binding ([7]; Superior frontal gyrus, AD Case 2): 57 fmol/mg
- ^3H-THK5117 specific binding ([7]; Superior frontal gyrus, AD Case 3): 114 fmol/mg
- ^3H-THK5117 specific binding ([7]; Superior temporal gyrus, AD Case 1): 363 fmol/mg
- ^3H-THK5117 specific binding ([7]; Superior temporal gyrus, AD Case 2): 114 fmol/mg
- ^3H-THK5117 specific binding ([7]; Superior temporal gyrus, AD Case 3): 53 fmol/mg
- ^3H-THK5117 specific binding ([7]; Thalamus, AD Case 1): 349 fmol/mg
- Autoradiography binding in control case ([7]; control case compared to the three AD cases, 4 nM): Low and regional binding
- Autoradiography binding pattern versus AT8 immunostaining [8]: identical binding pattern
